Experimental data reported in patent US6737383B1, “Herbicidal oxadiazolidines” (priority 1999, dated 2004).

How the values were obtained:
cocklebur = test: Test B pre/postemergence cocklebur; type: in vivo, Xanthium strumarium; settings: for Cocklebur plant response rating: scale of 0 to 10 where 0 is no effect and 10 is complete control
Summary of the method: (§1)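 Response is a visual 0-to-10 score relative to untreated plants, where 0 means no effect and 10 means complete control, taken twelve to sixteen days after application. Treatments went onto soil at planting and onto foliage of 1- to 4-leaf plants, using a surfactant-containing non-phytotoxic solvent.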

rice = test: Test B flood test rice; type: in vivo, Oryza sativa
Summary of the method: (§2)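 Plants were grown to the 2-leaf stage before treatment with test chemical, then held in a greenhouse for twelve to sixteen days. Injury was visually rated against untreated controls on a 0–10 scale, where 0 is no effect and 10 is complete control.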

corn = test: Test B pre/postemergence corn; type: in vivo, Zea mays; settings: for Corn plant response rating: scale of 0 to 10 where 0 is no effect and 10 is complete control
Summary of the method: as §1

rape = test: Test B pre/postemergence rape; type: in vivo, Brassica napus; settings: for Rape plant response rating: scale of 0 to 10 where 0 is no effect and 10 is complete control
Summary of the method: as §1

duck salad = test: Test B flood test duck salad; type: in vivo, Heteranthera limosa
Summary of the method: as §2

sugar beet = test: Test B pre/postemergence sugar beet; type: in vivo, Beta vulgaris; settings: for Sugarbeets plant response rating: scale of 0 to 10 where 0 is no effect and 10 is complete control
Summary of the method: as §1

wheat = test: Test B pre/postemergence wheat; type: in vivo, Triticum aestivum; settings: for Wheat plant response rating: scale of 0 to 10 where 0 is no effect and 10 is complete control
Summary of the method: as §1

purple nutsedge = test: Test B pre/postemergence purple nutsedge; type: in vivo, Cyperus rotundus; settings: for Nutsedge plant response rating: scale of 0 to 10 where 0 is no effect and 10 is complete control
Summary of the method: as §1

bedstraw = test: Test B pre/postemergence bedstraw; type: in vivo, Galium aparine
Summary of the method: as §1

giant foxtail = test: Test B pre/postemergence giant foxtail; type: in vivo, Setaria faberii; settings: for Giant foxtail plant response rating: scale of 0 to 10 where 0 is no effect and 10 is complete control
Summary of the method: as §1

wild oat = test: Test B pre/postemergence wild oat; type: in vivo, Avena fatua; settings: for Wild oats plant response rating: scale of 0 to 10 where 0 is no effect and 10 is complete control
Summary of the method: as §1

velvetleaf = test: Test B pre/postemergence velvetleaf; type: in vivo, Abutilon theophrasti; settings: for Velvetleaf plant response rating: scale of 0 to 10 where 0 is no effect and 10 is complete control
Summary of the method: as §1

pigweed = test: Test B pre/postemergence pigweed; type: in vivo, Amaranthus retroflexus; settings: for Redroot pigweed plant response rating: scale of 0 to 10 where 0 is no effect and 10 is complete control
Summary of the method: as §1

blackgrass = test: Test B pre/postemergence blackgrass; type: in vivo, Alopecurus myosuroides
Summary of the method: as §1

soybean = test: Test B pre/postemergence soybean; type: in vivo, Glycine max; settings: for Soybean plant response rating: scale of 0 to 10 where 0 is no effect and 10 is complete control
Summary of the method: as §1

morningglory = test: Test B pre/postemergence morningglory; type: in vivo, Ipomoea hederacea; settings: for Morningglory plant response rating: scale of 0 to 10 where 0 is no effect and 10 is complete control
Summary of the method: as §1

smallflower flatsedge = test: Test B flood test smallflower flatsedge; type: in vivo, Cyperus difformis
Summary of the method: as §2

surinam grass = test: Test B pre/postemergence surinam grass; type: in vivo, Brachiaria decumbens
Summary of the method: as §1

bamyardgrass = test: Test B flood test barnyardgrass; type: in vivo, Echinochloa crus-galli
Summary of the method: as §2

crabgrass = test: Test B pre/postemergence crabgrass; type: in vivo, Digitaria sanguinalis; settings: for Crabgrass plant response rating: scale of 0 to 10 where 0 is no effect and 10 is complete control
Summary of the method: as §1

[1] = Postemergence, Rate 125 g/ha, scale 0 to 10, 0 is no effect, 10 is complete control
[2] = Preemergence, Rate 62 g/ha, scale 0 to 10 (0 no effect, 10 complete control)
[3] = Rate 500 g/ha, Postemergence, scale 0 to 10, 0 no effect, 10 complete control
[4] = Postemergence (flood test), Rate 125 g/ha, scale 0 to 10, 0 is no effect, 10 is complete control
[5] = Rate 62 g/ha, Postemergence (flood test species), scale of 0 to 10 where 0 is no effect and 10 is complete control
[6] = Rate 500 g/ha, listed under Postemergence (flood test species), scale 0 to 10, 0 no effect, 10 complete control
[7] = Rate 62 g/ha, Postemergence, scale of 0 to 10 where 0 is no effect and 10 is complete control
[8] = Rate 250 g/ha, Postemergence, scale of 0 to 10 where 0 is no effect and 10 is complete control
[9] = Preemergence, Rate 250 g/ha, scale of 0 to 10 where 0 is no effect and 10 is complete control
[10] = Preemergence, Rate 500 g/ha, scale of 0 to 10 where 0 is no effect and 10 is complete control

Cc1c(-n2c(=O)on(C(=O)N(c3ccccc3)C(C)C)c2=O)ccc2ccccc12 [Compound 344]
Plant response rating, Cocklebur (cocklebur; [1]): 0
Plant response rating, Cocklebur (cocklebur; [2]): 0
Cocklebur plant response rating (0 to 10 scale) (cocklebur; Preemergence, Rate 125 g/ha): 0
Cocklebur plant response rating (cocklebur; Preemergence, Rate 250 g/ha): 0
Cocklebur plant response rating (cocklebur; Preemergence, Rate 500 g/ha): 0
Cocklebur plant response rating (cocklebur; Rate 62 g/ha, Postemergence): 0
Plant response rating, Cocklebur (cocklebur; [3]): 0
Plant response rating, Rice (rice; [4]): 0
Rice plant response rating (rice; [5]): 0
Plant response rating, Rice (rice; [6]): 0
Plant response rating, Corn (corn; [1]): 0
Plant response rating, Corn (corn; [2]): 0
Corn plant response rating (0 to 10 scale) (corn; Preemergence, Rate 125 g/ha): 0
Corn plant response rating (corn; Preemergence, Rate 250 g/ha): 0
Corn plant response rating (corn; Preemergence, Rate 500 g/ha): 0
Corn plant response rating (corn; Rate 62 g/ha, Postemergence): 0
Plant response rating, Corn (corn; [3]): 0
Plant response rating, Rape (rape; [1]): 0
Plant response rating, Rape (rape; [2]): 0
Rape plant response rating (0 to 10 scale) (rape; Preemergence, Rate 125 g/ha): 0
Rape plant response rating (rape; Preemergence, Rate 250 g/ha): 0
Rape plant response rating (rape; Rate 62 g/ha, Postemergence): 0
Plant response rating, Rape (rape; [3]): 0
Plant response rating, Ducksalad (duck salad; [4]): 0
Ducksalad plant response rating (duck salad; [5]): 0
Plant response rating, Ducksalad (duck salad; [6]): 0
Plant response rating, Sugarbeets (sugar beet; [1]): 0
Plant response rating, Sugarbeets (sugar beet; [2]): 0
Sugarbeets plant response rating (0 to 10 scale) (sugar beet; Preemergence, Rate 125 g/ha): 0
Sugarbeets plant response rating (sugar beet; Preemergence, Rate 250 g/ha): 0
Sugarbeets plant response rating (sugar beet; Preemergence, Rate 500 g/ha): 0
Sugarbeets plant response rating (sugar beet; Rate 62 g/ha, Postemergence): 0
Plant response rating, Sugarbeets (sugar beet; [3]): 0
Plant response rating, Wheat (wheat; [1]): 0
Plant response rating, Wheat (wheat; [2]): 0
Wheat plant response rating (0 to 10 scale) (wheat; Preemergence, Rate 125 g/ha): 0
Wheat plant response rating (wheat; Preemergence, Rate 250 g/ha): 0
Wheat plant response rating (wheat; Preemergence, Rate 500 g/ha): 0
Wheat plant response rating (wheat; Rate 62 g/ha, Postemergence): 0
Plant response rating, Wheat (wheat; [3]): 0
Plant response rating, Nutsedge (purple nutsedge; [1]): 0
Plant response rating, Nutsedge (purple nutsedge; [2]): 0
Nutsedge plant response rating (0 to 10 scale) (purple nutsedge; Preemergence, Rate 125 g/ha): 0
Nutsedge plant response rating (purple nutsedge; Preemergence, Rate 250 g/ha): 0
Nutsedge plant response rating (purple nutsedge; Preemergence, Rate 500 g/ha): 0
Nutsedge plant response rating (purple nutsedge; Rate 62 g/ha, Postemergence): 0
Plant response rating, Nutsedge (purple nutsedge; [3]): 0
Plant response rating, Bedstraw (bedstraw; [1]): 0
Plant response rating, Bedstraw (bedstraw; [2]): 0
Bedstraw plant response rating (0 to 10 scale) (bedstraw; Preemergence, Rate 125 g/ha): 0
Bedstraw plant response rating (bedstraw; [7]): 0
Plant response rating, Bedstraw (bedstraw; [8]): 0
Plant response rating, Bedstraw (bedstraw; [3]): 0
Plant response rating, Giant foxtail (giant foxtail; [1]): 0
Plant response rating, Giant foxtail (giant foxtail; [2]): 0
Giant foxtail plant response rating (0 to 10 scale) (giant foxtail; Preemergence, Rate 125 g/ha): 2
Giant foxtail plant response rating (giant foxtail; Preemergence, Rate 250 g/ha): 3
Giant foxtail plant response rating (giant foxtail; Preemergence, Rate 500 g/ha): 8
Giant foxtail plant response rating (giant foxtail; Rate 62 g/ha, Postemergence): 0
Plant response rating, Giant foxtail (giant foxtail; [3]): 0
Plant response rating, Wild oats (wild oat; [1]): 0
Plant response rating, Wild oats (wild oat; [2]): 0
Wild oats plant response rating (0 to 10 scale) (wild oat; Preemergence, Rate 125 g/ha): 0
Wild oats plant response rating (wild oat; Preemergence, Rate 250 g/ha): 0
Wild oats plant response rating (wild oat; Preemergence, Rate 500 g/ha): 0
Wild oats plant response rating (wild oat; Rate 62 g/ha, Postemergence): 0
Plant response rating, Wild oats (wild oat; [3]): 0
Plant response rating, Velvetleaf (velvetleaf; [1]): 0
Plant response rating, Velvetleaf (velvetleaf; [2]): 0
Velvetleaf plant response rating (0 to 10 scale) (velvetleaf; Preemergence, Rate 125 g/ha): 0
Velvetleaf plant response rating (velvetleaf; Preemergence, Rate 250 g/ha): 0
Velvetleaf plant response rating (velvetleaf; Preemergence, Rate 500 g/ha): 0
Velvetleaf plant response rating (velvetleaf; Rate 62 g/ha, Postemergence): 0
Plant response rating, Velvetleaf (velvetleaf; [3]): 0
Plant response rating, Redroot pigweed (pigweed; [1]): 0
Plant response rating, Redroot pigweed (pigweed; [2]): 0
Redroot pigweed plant response rating (0 to 10 scale) (pigweed; Preemergence, Rate 125 g/ha): 0
Redroot pigweed plant response rating (pigweed; Preemergence, Rate 250 g/ha): 0
Redroot pigweed plant response rating (pigweed; Preemergence, Rate 500 g/ha): 0
Redroot pigweed plant response rating (pigweed; Rate 62 g/ha, Postemergence): 0
Plant response rating, Redroot pigweed (pigweed; [3]): 2
Plant response rating, Blackgrass (blackgrass; [1]): 0
Plant response rating, Blackgrass (blackgrass; [2]): 0
Blackgrass plant response rating (0 to 10 scale) (blackgrass; Preemergence, Rate 125 g/ha): 0
Blackgrass plant response rating (blackgrass; [9]): 0
Blackgrass plant response rating (blackgrass; [10]): 0
Blackgrass plant response rating (blackgrass; [7]): 0
Plant response rating, Blackgrass (blackgrass; [8]): 0
Plant response rating, Blackgrass (blackgrass; [3]): 0
Plant response rating, Soybean (soybean; [1]): 2
Plant response rating, Soybean (soybean; [2]): 0
Soybean plant response rating (0 to 10 scale) (soybean; Preemergence, Rate 125 g/ha): 0
Soybean plant response rating (soybean; Preemergence, Rate 250 g/ha): 0
Soybean plant response rating (soybean; Preemergence, Rate 500 g/ha): 0
Soybean plant response rating (soybean; Rate 62 g/ha, Postemergence): 2
Plant response rating, Soybean (soybean; [3]): 2
Plant response rating, Morningglory (morningglory; [1]): 0
Plant response rating, Morningglory (morningglory; [2]): 0
Morningglory plant response rating (0 to 10 scale) (morningglory; Preemergence, Rate 125 g/ha): 0
Morningglory plant response rating (morningglory; Preemergence, Rate 250 g/ha): 0
Morningglory plant response rating (morningglory; Preemergence, Rate 500 g/ha): 0
Morningglory plant response rating (morningglory; Rate 62 g/ha, Postemergence): 0
Plant response rating, Morningglory (morningglory; [3]): 0
Plant response rating, S. Flatsedge (smallflower flatsedge; [4]): 0
S. Flatsedge plant response rating (smallflower flatsedge; [5]): 0
Plant response rating, S. Flatsedge (smallflower flatsedge; [6]): 0
Plant response rating, B. signalgrass (surinam grass; [1]): 0
Plant response rating, B. signalgrass (surinam grass; [2]): 0
B. signalgrass plant response rating (0 to 10 scale, 0 is no effect, 10 is complete control) (surinam grass; Preemergence, Rate 125 g/ha): 0
B. signalgrass plant response rating (surinam grass; [9]): 0
B. signalgrass plant response rating (surinam grass; [10]): 0
B. signalgrass plant response rating (surinam grass; [7]): 0
Plant response rating, B. signalgrass (surinam grass; [8]): 0
Plant response rating, B. signalgrass (surinam grass; [3]): 0
Plant response rating, Barnyardgrass (bamyardgrass; [4]): 0
Barnyardgrass plant response rating (bamyardgrass; [5]): 0
Plant response rating, Barnyardgrass (bamyardgrass; Rate 250 g/ha, Postemergence (flood test species), scale of 0 to 10 where 0 is no effect and 10 is complete control): 0
Plant response rating, Barnyardgrass (bamyardgrass; [6]): 0
Plant response rating, Crabgrass (crabgrass; [1]): 0
Plant response rating, Crabgrass (crabgrass; [2]): 0
Crabgrass plant response rating (0 to 10 scale) (crabgrass; Preemergence, Rate 125 g/ha): 0
Crabgrass plant response rating (crabgrass; Preemergence, Rate 250 g/ha): 0
Crabgrass plant response rating (crabgrass; Preemergence, Rate 500 g/ha): 1
Crabgrass plant response rating (crabgrass; Rate 62 g/ha, Postemergence): 0
Plant response rating, Crabgrass (crabgrass; [3]): 0
